Results on 1 compound are retold here after ChEMBL document CHEMBL4477234, “Potent Suppressive Effects of 1-Piperidinylimidazole Based Novel P2X7 Receptor Antagonists on Cancer Cell Migration and Invasion” (J Med Chem, 2016).

For one series, the species on record is Homo sapiens. In words: Selectivity ratio, ratio of IC50 for human P2X3 receptor expressed in human 1321N1 cells to human P2X7 receptor expressed in HEK293 cells. It counts as cell-based.
Series [1] concerns the target T1, P2X purinoceptor 7 (Homo sapiens, UniProt Q99572).
T1 sequence (Q99572 whole entry): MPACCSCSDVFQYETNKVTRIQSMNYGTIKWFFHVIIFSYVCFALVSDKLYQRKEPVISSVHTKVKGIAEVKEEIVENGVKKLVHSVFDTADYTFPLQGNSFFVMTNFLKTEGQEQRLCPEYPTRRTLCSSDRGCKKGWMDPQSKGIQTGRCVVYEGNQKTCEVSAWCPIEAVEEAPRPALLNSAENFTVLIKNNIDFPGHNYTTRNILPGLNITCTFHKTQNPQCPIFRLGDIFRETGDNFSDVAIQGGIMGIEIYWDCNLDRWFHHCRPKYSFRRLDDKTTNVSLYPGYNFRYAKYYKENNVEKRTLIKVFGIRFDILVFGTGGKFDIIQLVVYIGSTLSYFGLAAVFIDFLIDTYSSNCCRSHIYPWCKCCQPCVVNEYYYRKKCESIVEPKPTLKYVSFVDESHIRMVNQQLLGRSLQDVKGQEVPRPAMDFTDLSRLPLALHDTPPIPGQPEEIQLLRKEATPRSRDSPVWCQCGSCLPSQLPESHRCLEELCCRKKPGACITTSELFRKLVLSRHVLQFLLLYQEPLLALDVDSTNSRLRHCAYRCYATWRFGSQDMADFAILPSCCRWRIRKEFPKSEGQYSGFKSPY
As to the kind of experiment: Antagonist activity at human P2X7 receptor expressed in HEK293 cells assessed as inhibition of BzATP-induced EtBr uptake measured after 2 hrs by fluorescence analysis. It counts as cell-based.

Series [2] has as its system MDA-MB-231. As to the kind of experiment: Antiinvasive activity against human MDA-MB-231 cells measured after 48 hrs by transwell invasion assay. Conditions: MDA-MB-231, 48 h. Format: functional, cell-based.
Series [3] deals with T2, P2X purinoceptor 2 (Homo sapiens) (UniProt Q9UBL9).
T2 sequence (whole entry): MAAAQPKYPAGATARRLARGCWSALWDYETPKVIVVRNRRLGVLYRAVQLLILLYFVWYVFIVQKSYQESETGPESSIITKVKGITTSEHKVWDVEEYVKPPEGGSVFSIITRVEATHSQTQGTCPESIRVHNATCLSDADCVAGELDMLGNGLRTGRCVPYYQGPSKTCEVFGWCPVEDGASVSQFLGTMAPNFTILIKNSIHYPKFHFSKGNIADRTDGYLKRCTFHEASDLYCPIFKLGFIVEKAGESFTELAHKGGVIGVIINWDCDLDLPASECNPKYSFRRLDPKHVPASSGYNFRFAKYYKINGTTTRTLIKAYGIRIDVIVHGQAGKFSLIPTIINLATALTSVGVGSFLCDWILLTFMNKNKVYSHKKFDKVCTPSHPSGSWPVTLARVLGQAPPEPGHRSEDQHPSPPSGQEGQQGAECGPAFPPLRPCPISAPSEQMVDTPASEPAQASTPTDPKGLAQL
In words: Antagonist activity at human P2X2 receptor expressed in human 1321N1 cells assessed as inhibition of ATP-induced calcium influx at 1 uM preincubated for 30 mins prior to ATP-stimulation by calcium influx assay. It counts as cell-based.

In the next series the target is T3, P2X purinoceptor 3 (Homo sapiens, UniProt P56373).
T3 sequence (P56373 whole entry): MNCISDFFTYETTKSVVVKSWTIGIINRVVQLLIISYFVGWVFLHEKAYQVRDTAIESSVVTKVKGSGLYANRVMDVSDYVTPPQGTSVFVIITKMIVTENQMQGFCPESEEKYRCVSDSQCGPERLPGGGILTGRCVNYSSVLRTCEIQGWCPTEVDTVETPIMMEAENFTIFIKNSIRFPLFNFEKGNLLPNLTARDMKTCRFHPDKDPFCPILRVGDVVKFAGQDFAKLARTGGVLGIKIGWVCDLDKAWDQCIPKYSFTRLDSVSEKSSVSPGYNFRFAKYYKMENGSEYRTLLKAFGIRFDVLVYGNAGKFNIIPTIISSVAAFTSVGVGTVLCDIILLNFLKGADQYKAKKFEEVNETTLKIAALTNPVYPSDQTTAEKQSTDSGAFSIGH
In words: Antagonist activity at human P2X3 receptor expressed in human 1321N1 cells assessed as inhibition of ATP-induced calcium influx preincubated for 30 mins prior to ATP-stimulation by calcium influx assay. It counts as cell-based.

The nature of series [4]: Toxicity in zebrafish assessed as induction of teratogenic developmental toxicity at 10 uM. More on the design: species or system Danio rerio. Conditions: in vivo.
In series [5] the target is T1, P2X purinoceptor 7. As to the kind of experiment: Antagonist activity at human P2X7 receptor in LPS/IFN-gamma-differentiated human THP-1 cells assessed as suppression of BzATP-stimulated IL-1beta release per-incubated for 30 mins before BzATP addition and measured after 30 mins by ELISA. Format: cell-based.
For series [6], the target named is T4, P2X purinoceptor 1 (Homo sapiens) (UniProt P51575).
T4 sequence (whole entry): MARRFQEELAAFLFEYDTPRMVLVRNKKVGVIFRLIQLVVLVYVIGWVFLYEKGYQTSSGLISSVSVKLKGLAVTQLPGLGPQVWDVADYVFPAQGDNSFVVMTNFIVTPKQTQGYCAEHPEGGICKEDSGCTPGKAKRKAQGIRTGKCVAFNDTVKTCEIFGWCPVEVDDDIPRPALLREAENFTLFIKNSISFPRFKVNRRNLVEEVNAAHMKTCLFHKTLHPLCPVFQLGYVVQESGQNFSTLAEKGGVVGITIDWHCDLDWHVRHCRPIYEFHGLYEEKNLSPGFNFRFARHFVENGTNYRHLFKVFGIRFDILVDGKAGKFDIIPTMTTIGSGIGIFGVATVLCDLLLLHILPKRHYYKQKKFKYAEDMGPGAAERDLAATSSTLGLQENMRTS
As to the kind of experiment: Antagonist activity at human P2X1 receptor expressed in human 1321N1 cells assessed as inhibition of ATP-induced calcium influx at 1 uM preincubated for 30 mins prior to ATP-stimulation by calcium influx assay. Format: cell-based.

Series [7] has as its system MDA-MB-231. In words: Antimigratory activity against human MDA-MB-231 cells xenografted in zebrafish assessed as inhibition of cell dissemination and invasion at 10 uM measured after 4 days by fluorescence microscopic analysis relative to control. Format: functional, cell-based. (Xenograft models place foreign cells or tissue in a host animal.)
Series [8] addresses T5, P2X purinoceptor 4 (Homo sapiens) (UniProt Q99571).
T5 sequence (whole entry): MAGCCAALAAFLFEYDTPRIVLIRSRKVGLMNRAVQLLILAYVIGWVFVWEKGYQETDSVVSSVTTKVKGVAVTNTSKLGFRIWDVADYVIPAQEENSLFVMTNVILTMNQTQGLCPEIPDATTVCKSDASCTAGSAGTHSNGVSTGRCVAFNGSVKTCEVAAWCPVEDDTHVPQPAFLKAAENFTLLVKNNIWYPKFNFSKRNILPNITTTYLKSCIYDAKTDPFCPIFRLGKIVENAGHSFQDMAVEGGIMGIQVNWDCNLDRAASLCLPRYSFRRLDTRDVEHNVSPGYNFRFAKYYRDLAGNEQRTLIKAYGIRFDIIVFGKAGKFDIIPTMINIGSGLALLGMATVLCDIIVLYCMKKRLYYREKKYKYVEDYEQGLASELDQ
As to the kind of experiment: Antagonist activity at human P2X4 receptor expressed in human 1321N1 cells assessed as inhibition of ATP-induced calcium influx at 1 uM preincubated for 30 mins prior to ATP-stimulation by calcium influx assay. Format: cell-based.

The subject of series [9] is MDA-MB-231. As to the kind of experiment: Cytotoxicity against human MDA-MB-231 cells assessed as reduction in cell viability at 10 uM measured after 48 hrs by WST-1 cell viability assay. Format: cell-based. Conditions: mda-mb-231, 48 h. A general note: Tetrazolium assays rely on reduction of a dye to a coloured formazan, in cell work by metabolically active cells.

Activity calls are given as the source filed them. No cut-off for these calls is given here.

Broadly, the IC50 is the midpoint of a concentration-inhibition curve. By inhibition is commonly meant the share of the control response that was lost under treatment. Consider `CN(C)c1ccc(C(=O)N2CCC(n3cncc3-c3ccc(OS(=O)(=O)c4cccc5cnccc45)cc3)CC2)cc1`, for which the Ratio IC50 in the series filed under Homo sapiens fell in the range of 1000 to 7000. For the same compound, the 50% inhibitory concentration (IC50) came out at 0.11 nM on P2X purinoceptor 7 [1], 2680 nM with MDA-MB-231 [2], 800 nM on P2X purinoceptor 3 and 2.19 nM on P2X purinoceptor 7 [5]. The inhibition stood at 11% in series [3], 26% in [6] and 15% in series [8]. The Activity entry in [4] is on record as “Non-Toxic”; in the series with MDA-MB-231 [9] it was 71%. Further, the inhibition entry with MDA-MB-231 [7] was “Active”.
